Assay: Jurkat Latency Reversal Assay: Jurkat HIV-luciferase clones were maintained in RPMI medium 1640 (Gibco by Life Technologies) containing 10% (vol/vol) fetal bovine serum (SAFC/Sigma-Aldrich) and 25 units/mL penicillin, 25 units/mL streptomycin (Gibco by Life Technologies), and were split 1:4 every 3 to 4 days to maintain a cell density of ˜0.3 to 1 million cells/mL. The Jurkat clones were maintained with the addition of 500 nM EFV in the medium. Three Jurkat cell clones (C16, I15, and N6), each harboring one or two integrated HIV proviruses expressing the luciferase reporter gene, were added at equal amounts for a total of 5,000 cells per well to 384-well plates containing compound titrations. Dose-response testing was performed on compounds dissolved in dimethyl sulfoxide (DMSO, Fisher Scientific, Merelbeke, Belgium) dispensed in duplicate serial 3-fold, 14-point titrations using a D300e Digital Droplet Dispenser (Hewlett-Packard) to give final assay concentrations of 10 μM to 2.1 pM in 50 μL of medium at 0.5% DMSO (vol/vol) final concentration. Cells and compound were incubated at 37° C. for 48 hours, unless otherwise indicated, followed by the addition of 20 μL of Steady-Glo® Luciferase (Promega). Luminescence resulting from the induction of the virally expressed luciferase was measured using an EnVision 2102 Multilabel Plate Reader (Perkin Elmer). Dose-response relationships were analyzed with GraphPad PRISM 6 using a four-parameter logistic regression model to calculate the concentration of compound that gives half-maximal response (EC50) and the maximal percent activation compared to the vehicle control.

CN[C@@H](C)C(=O)N[C@H]1CCS[C@H]2CC(C)(C)[C@@H](C(=O)N[C@H](C(=O)N[C@H]3CC[C@H](NC(=O)[C@@H](NC(=O)[C@H]4N5C(=O)[C@@H](NC(=O)[C@H](C)NC)CCS[C@H]5CC4(C)C)c4ccccc4)CC3)c3ccccc3)N2C1=O
EC50: 53.7 nM

CN[C@@H](C)C(=O)N[C@H]1CCS[C@H]2CC(C)(C)[C@@H](C(=O)N[C@H]3c4ccccc4C[C@H]3C(=O)N[C@H]3CC[C@H](NC(=O)[C@@H]4Cc5ccccc5[C@@H]4NC(=O)[C@H]4N5C(=O)[C@@H](NC(=O)[C@H](C)NC)CCS[C@H]5CC4(C)C)CC3)N2C1=O
EC50: 429 nM

CN[C@@H](C)C(=S)N[C@H]1CCS[C@H]2CC(C)(C)[C@@H](C(=O)N[C@H]3c4ccccc4CC[C@H]3C(=O)N[C@H]3CC[C@H](NC(=O)[C@@H]4CCc5ccccc5[C@@H]4NC(=O)[C@H]4N5C(=O)[C@@H](NC(=S)[C@H](C)NC)CCS[C@H]5CC4(C)C)CC3)N2C1=O
EC50: 6.8 nM

CN[C@@H](C)C(=O)N[C@H]1CCS[C@H]2CC(C)(C)[C@@H](C(=O)N[C@H]3c4ccccc4CC[C@H]3C(=O)N[C@H]3CC[C@H](NC(=O)[C@@H]4CCc5ccccc5[C@@H]4NC(=O)[C@H]4N5C(=O)[C@@H](NC(=O)[C@H](C)NC)CCS[C@H]5CC4(C)C)CC3)N2C1=O
EC50: 324 nM

CN[C@@H](C)C(=S)N[C@H]1CCS[C@H]2CC(C)(C)[C@@H](C(=O)N[C@H]3c4ccccc4C[C@H]3C(=O)N[C@H]3CC[C@H](NC(=O)[C@@H]4Cc5ccccc5[C@@H]4NC(=O)[C@H]4N5C(=O)[C@@H](NC(=S)[C@H](C)NC)CCS[C@H]5CC4(C)C)CC3)N2C1=O
EC50: 32 nM

CN[C@@H](C)C(=S)N[C@H]1CCS[C@H]2CC(C)(C)[C@@H](C(=O)N[C@H](C(=O)N[C@H]3CC[C@H](NC(=O)[C@@H](NC(=O)[C@H]4N5C(=O)[C@@H](NC(=S)[C@H](C)NC)CCS[C@H]5CC4(C)C)c4ccccc4)CC3)c3ccccc3)N2C1=O
EC50: 89.5 nM
